The values that follow come from article PMC9977398, “Next-generation membrane-active glycopeptide antibiotics that also inhibit bacterial cell division” (Chemical Science, 2023).

The subject of one data set is MDCK cells. The class given is cell-based. The conditions noted are these: 24 h, Alamar blue. The protocol: acid group of vancomycin to yield the compounds 1-10. All the derivatives of vancomycin were purified by reverse phase HPLC to about 90 % purity with 65-75 % yield and characterized by HR-MS and 1H-NMR.
Figure S1. Cytotoxicity of VanQAmC10 against MDCK cells. The CC50 (defined as the concentration at which the viability of compound treated cells reduced to 50%) was greater […]
(1 picture or pasted object on this page, not shown here)
50 μL of serially diluted compound was added into 96 well microtiter plates. Freshly drawn, heparanized human blood was centrifuged down to obtain the erythrocytes and re-suspended to 5 vol % in PBS (pH 7.4). […] 100 μL of the supernatant from each well were transferred into fresh microtiter plates, and A540 was measured.
% haemolysis = (A - A0)/(Atotal -A0) × 100, where A is the absorbance of the test well, A 0 the absorbance of the negative controls (without compound), and A total the absorbance of 100 % hemolysis wells (with Triton X -100), all at 540 nm. […]
2 h post incubation with dye, the absorbance was measured at 570 nm using 600 nm as […]
The bactericidal activity of the compounds was evaluated with the time kill kinetics assay.
MRSA ATCC 33591 cells were cultured in nutrient media at 37°C for 6 h. […] The bacterial colonies were counted and results are represented in logarithmic scale, i.e. log10 (CFU/mL). […]
In general terms: Resazurin is reduced to fluorescent resorufin, in cell work by metabolically active cells.

Data set [1] deals with VRE 51575 (vancomycin-resistant E. faecalis, VanB phenotype, ATCC 51575). Further details: method as in PMID 32195571. The conditions noted are these: previously reported; cited from earlier work.

Structures are written as SMILES.

`CCCCCCCCCCNC(=O)C[N+](C)(C)CCCNC(=O)C1NC(=O)C2NC(=O)C(NC(=O)C3NC(=O)C(CC(N)=O)NC(=O)C(NC(=O)C(CC(C)C)NC)C(O)c4ccc(c(Cl)c4)Oc4cc3cc(c4OC3OC(CO)C(O)C(O)C3OC3CC(C)(N)C(O)C(C)O3)Oc3ccc(cc3Cl)C2O)c2ccc(O)c(c2)-c2c(O)cc(O)cc21` (centres unmarked) [VanQAmC10 (8)] had a CC50 in the data set on MDCK cells of over 64 µM. For the same molecule, the “Minimum inhibitory concentration, VRE 51575” value in data set [1] is 4 µM.

The term CC50 denotes the concentration at which the toxic effect on the cells reaches its halfway point. A low value points to greater toxicity to the cells.
